Experimental findings from publication PMC12019385 (Scientific Reports, 2025) are described below.

Broadly, the Kd is the equilibrium constant for the complex coming apart. High values mean a looser complex, low ones a tighter complex.

Assay [1] has as its target Hsp70 A (heat shock 70 kDa protein A) (Caenorhabditis elegans, UniProt P09446). As to the kind of experiment: microscale thermophoresis. The format is binding.
Assay [2] deals with V-ATPase A (V-type proton ATPase catalytic subunit A) (Caenorhabditis elegans, UniProt Q9XW92). The assay can be described thus: microscale thermophoresis. The format is binding. For orientation: Microscale thermophoresis detects binding through changes in fluorescence in a small temperature gradient.
Sequence of V-ATPase A (V-type proton ATPase catalytic subunit A) (Q9XW92 whole entry): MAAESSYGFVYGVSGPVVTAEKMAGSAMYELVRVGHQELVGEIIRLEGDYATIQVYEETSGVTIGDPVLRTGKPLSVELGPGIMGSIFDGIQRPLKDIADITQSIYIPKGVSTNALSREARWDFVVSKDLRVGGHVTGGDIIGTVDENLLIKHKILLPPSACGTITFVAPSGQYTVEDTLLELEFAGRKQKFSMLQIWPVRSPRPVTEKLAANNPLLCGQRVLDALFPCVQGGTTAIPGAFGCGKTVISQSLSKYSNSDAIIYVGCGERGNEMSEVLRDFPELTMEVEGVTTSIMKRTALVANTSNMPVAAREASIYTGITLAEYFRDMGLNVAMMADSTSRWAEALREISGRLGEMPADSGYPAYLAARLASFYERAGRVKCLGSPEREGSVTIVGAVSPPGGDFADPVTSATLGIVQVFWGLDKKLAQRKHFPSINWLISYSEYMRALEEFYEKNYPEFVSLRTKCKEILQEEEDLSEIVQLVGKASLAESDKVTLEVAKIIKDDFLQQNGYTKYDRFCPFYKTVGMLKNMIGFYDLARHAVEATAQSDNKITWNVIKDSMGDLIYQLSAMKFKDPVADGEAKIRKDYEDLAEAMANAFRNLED

Sequence of Hsp70 A (heat shock 70 kDa protein A) (P09446 whole entry): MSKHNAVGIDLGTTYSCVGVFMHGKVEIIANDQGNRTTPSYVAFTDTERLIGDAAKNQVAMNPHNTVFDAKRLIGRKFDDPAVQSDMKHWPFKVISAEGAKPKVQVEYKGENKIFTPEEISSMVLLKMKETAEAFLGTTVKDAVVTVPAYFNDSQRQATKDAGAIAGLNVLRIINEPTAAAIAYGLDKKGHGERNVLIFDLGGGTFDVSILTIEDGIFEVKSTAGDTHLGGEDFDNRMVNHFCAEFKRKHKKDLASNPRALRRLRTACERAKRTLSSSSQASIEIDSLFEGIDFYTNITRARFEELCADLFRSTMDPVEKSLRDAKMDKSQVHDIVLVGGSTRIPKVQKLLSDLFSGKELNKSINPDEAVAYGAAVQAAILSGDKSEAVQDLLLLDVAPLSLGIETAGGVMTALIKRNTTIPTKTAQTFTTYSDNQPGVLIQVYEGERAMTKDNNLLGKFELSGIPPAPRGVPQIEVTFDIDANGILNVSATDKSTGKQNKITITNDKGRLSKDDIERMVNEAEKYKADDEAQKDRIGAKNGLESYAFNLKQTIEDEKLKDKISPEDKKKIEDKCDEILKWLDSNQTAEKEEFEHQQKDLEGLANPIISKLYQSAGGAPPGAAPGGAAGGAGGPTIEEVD

As for `CCCCCCCCCC(C)=O` [2-undecanone], the Kd in assay [1] came to 117 ± 16.3 nM; in assay [2], 302 ± 43.9 nM.
